From PubChem BioAssay AID248 (DTP/NCI, 2004)
“And” between values parts separate entries of the source, which are not always exact repeats. Identical values can stand only once. Toxic doses and inconclusive results are not listed. No stated cut-off is given here; in the data, active means T/C of 150% or more; inactive means T/C below 125%.

Tested on: L1210 leukemia ip in BDF1 mice, survival T/C
Assay: NCI In Vivo Anticancer Drug Screen. Data for tumor model L1210 Leukemia (intraperitoneal) in B6D2F1 (BDF1) mice
Settings: endpoint: mean survival time, higher = longer survival
How it was run: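 Transplantable tumor model; survival measured in treated vs vehicle control mice. Value = treated/control.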

[1] = dose: 100.0 mg/kg/injection, schedule: Q04DX003 (ip), vehicle: saline with Tween-80
[2] = dose: 200.0 mg/kg/injection, schedule: Q04DX003 (ip), vehicle: saline with Tween-80
[3] = dose: 400.0 mg/kg/injection, schedule: Q04DX003 (ip), vehicle: saline with Tween-80
[4] = dose: 25.0 mg/kg/injection, schedule: Q01DX009 (ip), vehicle: Klucel (hydroxypropylcellulose) (HPC)
[5] = dose: 50.0 mg/kg/injection, schedule: Q01DX009 (ip), vehicle: Klucel (hydroxypropylcellulose) (HPC)
[6] = dose: 100.0 mg/kg/injection, schedule: Q01DX009 (ip), vehicle: Klucel (hydroxypropylcellulose) (HPC)
[7] = dose: 100.0 mg/kg/injection, schedule: Q01DX001 (ip), vehicle: Klucel (hydroxypropylcellulose) (HPC)
[8] = dose: 200.0 mg/kg/injection, schedule: Q01DX001 (ip), vehicle: Klucel (hydroxypropylcellulose) (HPC)
[9] = dose: 100.0 mg/kg/injection, schedule: Q04DX003 (ip), vehicle: Klucel (hydroxypropylcellulose) (HPC)
[10] = dose: 200.0 mg/kg/injection, schedule: Q01DX009 (ip), vehicle: Klucel (hydroxypropylcellulose) (HPC)
[11] = dose: 200.0 mg/kg/injection, schedule: Q04DX003 (ip), vehicle: Klucel (hydroxypropylcellulose) (HPC)
[12] = dose: 400.0 mg/kg/injection, schedule: Q01DX009 (ip), vehicle: Klucel (hydroxypropylcellulose) (HPC)
[13] = dose: 400.0 mg/kg/injection, schedule: Q04DX003 (ip), vehicle: Klucel (hydroxypropylcellulose) (HPC)

Measured: T/C

O=P(NC1CCCCC1)(Oc1ccccc1)Oc1ccccc1
inactive: dose: 50.0 mg/kg/injection, schedule: Q01DX001 (ip), vehicle: carboxymethylcellulose (CMC) 95 % of control | dose: 100.0 mg/kg/injection, schedule: Q01DX001 (ip), vehicle: carboxymethylcellulose (CMC) 92 % of control | [1] 102 % of control | dose: 200.0 mg/kg/injection, schedule: Q01DX001 (ip), vehicle: carboxymethylcellulose (CMC) 97 % of control | [2] 97 % of control | dose: 400.0 mg/kg/injection, schedule: Q01DX001 (ip), vehicle: carboxymethylcellulose (CMC) 97 % of control | [3] 100 % of control

NC(=S)N/N=C/c1cccnc1
inactive: [4] 92 % of control | [5] 87 % of control | dose: 50.0 mg/kg/injection, schedule: Q04DX002 (ip), vehicle: Klucel (hydroxypropylcellulose) (HPC) 98 % of control | [6] 89 % of control | dose: 100.0 mg/kg/injection, schedule: Q04DX002 (ip), vehicle: Klucel (hydroxypropylcellulose) (HPC) 95 % of control and 107 % of control | dose: 200.0 mg/kg/injection, schedule: Q04DX002 (ip), vehicle: Klucel (hydroxypropylcellulose) (HPC) 95 % of control

Cc1nc[nH]c(=O)c1CCC(C)C
inactive: [7] 107 % of control | [8] 105 % of control | dose: 400.0 mg/kg/injection, schedule: Q01DX001 (ip), vehicle: Klucel (hydroxypropylcellulose) (HPC) 100 % of control

S=C(S)Nc1cccc2ccccc12
inactive: dose: 12.5 mg/kg/injection, schedule: Q01DX009 (ip), vehicle: Klucel (hydroxypropylcellulose) (HPC) 103 % of control | dose: 12.5 mg/kg/injection, schedule: Q04DX003 (ip), vehicle: Klucel (hydroxypropylcellulose) (HPC) 100 % of control | [4] 98 % of control | dose: 25.0 mg/kg/injection, schedule: Q04DX003 (ip), vehicle: Klucel (hydroxypropylcellulose) (HPC) 94 % of control | [5] 92 % of control | dose: 50.0 mg/kg/injection, schedule: Q04DX003 (ip), vehicle: Klucel (hydroxypropylcellulose) (HPC) 100 % of control | [6] 94 % of control | dose: 100.0 mg/kg/injection, schedule: Q01DX009 (ip), vehicle: saline with Tween-80 89 % of control | [9] 98 % of control | [1] 93 % of control and 86 % of control | [10] 94 % of control | dose: 200.0 mg/kg/injection, schedule: Q01DX009 (ip), vehicle: saline with Tween-80 88 % of control | [11] 96 % of control | [2] 95 % of control and 86 % of control | [12] 99 % of control | dose: 400.0 mg/kg/injection, schedule: Q01DX009 (ip), vehicle: saline with Tween-80 104 % of control | [13] 91 % of control | [3] 101 % of control and 86 % of control

COc1ccccc1N=Nc1c(O)n(-c2ccccc2C)c(=S)n(-c2ccc(C)cc2)c1=O
inactive: [7] 101 % of control | [8] 93 % of control

C#CC1(O)CCC2C3CCc4cc(OC)ccc4C3CCC21C (stereo not drawn)
inactive: dose: 10.0 mg/kg/injection, schedule: Q01DX009 (sc), vehicle: saline with Tween-80 102 % of control | dose: 100.0 mg/kg/injection, schedule: Q04DX003 (sc), vehicle: olive oil, sesame oil, peanut oil 102 % of control | dose: 200.0 mg/kg/injection, schedule: Q01DX009 (sc), vehicle: saline with Tween-80 98 % of control | dose: 200.0 mg/kg/injection, schedule: Q04DX003 (sc), vehicle: olive oil, sesame oil, peanut oil 102 % of control | dose: 400.0 mg/kg/injection, schedule: Q01DX009 (sc), vehicle: saline with Tween-80 96 % of control | dose: 400.0 mg/kg/injection, schedule: Q04DX003 (sc), vehicle: olive oil, sesame oil, peanut oil 100 % of control

CON(C)S(=O)c1ccc([N+](=O)[O-])cc1 (stereo not drawn)
inactive: [9] 100 % of control | [11] 97 % of control | [13] 94 % of control

CCOC(=O)c1cc(OCC)c2c(ccc3cc(OC)ccc32)n1
inactive: [6] 96 % of control | [10] 94 % of control | [12] 93 % of control
